Source: patent publication US20230345940A1, “INSECTICIDE” (Western Sydney University, priority 2020, published 2023)
Values joined by “and” are separate entries in the source; they are usually repeats but may differ in a detail not shown here. Equal values may be shown once. Read-outs that look alike come from different tables or passages of the source.

How the values were obtained:
Assay type in all cases: in vivo
[1] = test system: two-spotted spider mite (TSM), Tetranychus urticae Koch; test: Potter spray tower bioassay on leaf discs, two-spotted spider mite; details: 1.0% w/v; for mortality at 1 % strength: Tetranychus urticae, foliar
From the text: Tetranychus urticae Koch, (Acari: Tetranychidae), commonly known as two-spotted spider mite is a cosmopolitan, phytophagous species, and an important agricultural pest in many temperate and sub-tropical countries. It is highly polyphagous, and feeds primarily on plant foliage. Tetranychus urticae Koch UWS 1 (organophosphate-susceptible) strain, originally obtained from Dr Grant Herron, NSW
Department of Primary Industries, Menangle NSW, Australia, but had been maintained at WSU Hawkesbury campus for approximately 18 years. They were reared on potted French beans, Phaseolus vulgaris var Redland Pioneer (in a constant temperature room maintained at 25±2° C., 65±5% RH and 14 h D: L photoperiod. The culture was reared on potted dwarf French bean (Phaseolus vulgaris L. var. Redland Pioneer) plants grown in a composted pinebark-based potting medium in a large (7.0 m (1)×6.0 m (w)×4.0 m (h)), pesticide-free, constant temperature room (28-30° C., 50% RH, 18:6, D:L). Only young gravid female two-spotted mites were selected for bioassay.
For the two-spotted spider mite, screening of each sample was conducted on 20-40 adult female mites, which were evenly distributed on 1-3 French bean leaf discs (25 mm diam.) contained in 90 mm diameter Petri dishes. The leaf discs were placed with their underside uppermost on moist absorbent cotton wool. Water was added to the dishes daily to prevent desiccation of the leaf discs and preventing the mites from escaping the leaf disc.
A 3.0 mL aliquot was applied to each Petri dish with a Potter precision spray tower as described by Herron et al., Potter spray tower bioassay of selected citrus pests to petroleum spray oil, Journal of the Australian Entomological Society 34, 253-263, 1995.
The average weight of the solution sprayed on each dish was calculated to be 5.385 mg/cm^2 or 0.05385 mg/cm^2 active ingredient (a.i.). Dishes were retained under laboratory conditions (24±2° C., 50±15% RH) for post-treatment observations. Mortality was recorded 24 h and 48 h after treatment (HAT). Death was recognised by the absence of movement when the test organisms were mechanically stimulated by prodding with a brush.
(§1) For each batch of investigations, control treatments were conducted, with methodology identical to other treatments. The control treatment solutions comprised 3 mL aliquots of 200 ppm Triton X-100 in distilled water and acetone or hexane at the same concentration as the test solutions. Investigations were discarded if control mortality exceeded 15%. Treatment mortality was calculated and is presented as corrected mortality, to account for any control mortality (Abbott WS., A method of computing the effectiveness of an insecticide. Journal of Economic Entomology, 18, 265-267, 1925).

[2] = test system: neonate Helicoverpa armigera; test: Potter spray tower bioassay on leaf discs, Helicoverpa neonates; details: 1.0% w/v; for mortality at 1 % strength: Helicoverpa armigera, foliar
From the text: Helicoverpa armigera (Hubner) (Lepidoptera: Noctuidae), commonly known as the cotton bollworm or as heliothis, is a widespread species, with an extensive host range (see, e.g., https://www.cabi.org/isc/datasheet/26757). It typically feeds selectively on high protein plant parts, such as flowers, buds and fruits. Helicoverpa armigera was obtained as fresh eggs from AgBiTech Pty. Ltd, Glenvale QLD, Australia, or CSIRO Agriculture and Food, Cotton Research Institute, Myall Vale NSW, Australia.
Eggs (50-75) were transferred with a fine camel hair brush onto 90 mm Whatman No. 1 filter paper partially moistened with distilled water and thin slices from the artificial medium supplied by AgBiTech were placed on the filter paper as a source of food for the hatching caterpillars. The eggs were left to hatch under laboratory conditions of 25±3° C. and 65±10% RH. Hatching occurred within 24 h and bioassays were carried out on neonate larvae with an average weight of […].
For Helicoverpa, neonate larvae 4-12 h after hatching were transferred individually to a cotton plant leaf disc (35 mm diameter) mounted with its lower side uppermost on 1% agar in an Easy Grip Tissue Culture Dish dimensions 35×10 mm (Corning Incorporated, Corning NY, USA). […] Thus, each replicate comprised 4 neonates.
Following spraying, the small dishes were covered with a perforated plastic sheet and then placed in plastic insect cages previously described for aphid bioassays. The number of dishes sprayed per sample was 4-10. Dishes were retained under laboratory conditions (24±2° C., 50±15% RH) for post-treatment observations. Mortality counts were conducted at 24 and 48 HAT. Absence of the caterpillar movement when prodded with a fine brush was taken as the criterion of death.
as §1

[3] = test system: cotton aphid, Aphis gossypii; test: Potter spray tower bioassay on leaf discs, cotton aphid; details: 1.0% w/v
Method: Aphis gossypii (susceptible strain) (Hemiptera: Aphididae), was established as a culture from material supplied by Dr Grant Herron, NSW Department of Primary Industries, Menangle NSW, Australia. Aphids were reared on potted Gossypium hirsutum L. (Malvaceae) grown from non-insecticide-treated conventional cotton seed, supplied by Dr Robert Mensah, NSW Department of Primary Industries, Narrabri NSW, Australia. The culture was maintained in a temperature-controlled greenhouse chamber set at 27±3° C. and 55±10% RH (relative humidity) and natural light. Only young adult females were selected for bioassay.
For the cotton aphid, parthenogenetic adult female aphids were collected from the cultures on cotton plants. Fifteen adults were transferred using a fine camel hair brush onto the lower side of a respective leaf disc 50 mm diameter mounted on 1.0% w/v agar in a plastic insect cage measuring 50 mm diameter×15 mm height plastic insect breeding 50 mm diameter×15 height (SPL Life Sciences, Korea).
Aliquots (3 mL) of the 1% w/v extracts were applied with a Potter Spray Tower for each treatment, as described above, and the spray was allowed to partially dry before the cage was covered with its lid and the sides of the cage sealed with Parafilm M®.
Dishes were retained under laboratory conditions (24±2° C., 50±15% RH) for post-treatment observations. […]

[4] = test system: Aphis gossypii adults and nymphs; test: Field trial on cotton crop; details: extract at 1.0%, clothianidin at 125 mL/ha
Method: A trial was conducted on an irrigated commercial Bollgard II cotton crops (Sicot 74 variety) at the Australian Cotton Research Institute (ACM) in Narrabri NSW, Australia. The cotton crop used for the study comprised mature plants close to cut-out and were contaminated with Aphis gossypii from infested leaves collected from a nearby commercial cotton field at Yarral, Narrabri NSW, Australia.
[…] Each replicated plot measured 2 m (2 rows) wide and 1 m long with 2 m (rows) buffer between replicated plots. Three plants in each treatment replicate with terminals infested with aphids were randomly selected and terminals tagged for pre- and post-treatment assessments.
The control was sprayed with 100 ppm Triton-X 100 in water only.
Foliar application of each treatment was performed, applying the control first, then the plant extract, and finally the industry standard. Each treatment was applied to run-off using a small hand-held pressure sprayer fitted with flat fan nozzles delivering a droplet size of 200 μm (equivalent to field application of 100 L/ha). The decision to apply the treatment was made based on the IPM Guidelines and CottonLogic recommended economic threshold of 50% of plant terminals infested.
The number of A. gossypii and beneficial species (mainly predatory insects) were assessed by visually counting A. gossypii adults and nymphs and beneficials on the upper and undersides of leaves from the 3-4 nodes below the tagged plant terminals. Pre-treatment counts were made 24 h before treatment and post treatment counts on 1, 2, 5, 6, 7, 8, 9, 12 and 14 days after treatment (DAT).
The data for both A. gossypii adults and nymphs as well as predatory insects were each initially expressed as numbers per terminal. Data were calculated as percentage reduction of population compared to the pre-treatment count.
Means of data on population reduction were compared using one-way ANOVA, after confirming normality, using SPSS v21. Significance was normally set at 5% (α=0.05), and when there was significance, means were separated using Duncan's Multiple range test.

10′-oxo-8-methyl podopyrone [Fraction 44]
Corrected percentage mortality TSM 24 HAT [1]: 100.0% | Corrected percentage mortality TSM 48 HAT [1]: 100.0% | Corrected percentage mortality Helicoverpa 24 HAT [2]: 100.0% | Corrected percentage mortality Helicoverpa 48 HAT [2]: 100.0% | Corrected percentage mortality Cotton aphid 24 HAT [3]: 100.0%

CN/C(=N\[N+](=O)[O-])NCc1cnc(Cl)s1 [Clothianidin]
% Reduction from pre-treatment count, Mean of plots, 1 DAT ([4]; mean of plots 1-4): 54.65% | % Reduction from pre-treatment count, Mean of plots, 2 DAT ([4]; mean of plots 1-4): 77.18% | % Reduction from pre-treatment count, Mean of plots, 5 DAT ([4]; mean of plots 1-4): 85.08a, b % | % Reduction from pre-treatment count, Mean of plots, 6 DAT ([4]; mean of plots 1-4): 84.83% | % Reduction from pre-treatment count, Mean of plots, 7 DAT ([4]; mean of plots 1-4): 77.88% | % Reduction from pre-treatment count, Mean of plots, 14 DAT ([4]; mean of plots 1-4): 82.08% | % Reduction from pre-treatment count (mean of 3 plants), 2 DAT ([4]; per plot, single spray): 55.1% and 92.9% and 64.4% and 96.3% | % Reduction from pre-treatment count (mean of 3 plants), 5 DAT ([4]; per plot, single spray): 75.0% and 78.6% and 97.8% and 88.9% | % Reduction from pre-treatment count (mean of 3 plants), 6 DAT ([4]; per plot, single spray): 84.6% and 64.3% and 97.8% and 92.6% | % Reduction from pre-treatment count (mean of 3 plants), 14 DAT ([4]; per plot, single spray): 97.8% and 78.6% and 77.8% and 74.1%

CCc1c(OC)oc(CCCCCCCCCC(C)=O)c(C)c1=O [Fraction 42, 10′-oxopodopyrone]
mortality at 1 % strength ([1]; read-out: Corrected percentage mortality TSM 24 HAT): 100% | mortality at 1 % strength ([1]; read-out: Corrected percentage mortality TSM 48 HAT): 100% | mortality at 1 % strength ([2]; read-out: Corrected percentage mortality Helicoverpa 24 HAT): 0% | mortality at 1 % strength ([2]; read-out: Corrected percentage mortality Helicoverpa 48 HAT): 0%
